Results reported in patent publication US12049474B2, “Nucleoside prodrugs and uses related thereto” (Emory University, priority 2019, dated 2024).
pIC50: −log10 of the molar value. Like-named read-outs stand apart in the source and are kept apart here.

Experiments:
[1] = Metabolic stability assay in human liver microsomes (HLM); type: in vitro ADME; conditions: NADPH, sampled 0-120 min; for half-life at 3 µM: pH 7.4, 3 μM test compound, read-out: HLM t1/2; for HLM t1/2: 3 μM test compound
Method: The LC-MS/MS analysis was performed using Agilent 1260 Infinity II HPLC, coupled with an Agilent G6460 triple quadrupole mass spectrometer (Agilent Technologies, USA). All the data were acquired employing Agilent 6460 Quantitative Analysis data processing software.
Reverse-phase HPLC separation for each compound was achieved either on an Agilent Porshell 120 EC-C8 column (2.1×50 mm, 2.7 μm), or on an Agilent Zorbax XDB C18 column (2.1×50 mm, 3.5 μm) with a mobile phase composed of methanol-water-formic acid or acetonitrile-water-formic acid (0.1%) at a flow rate of 0.5 mL/min (changes for some compounds). Each method was developed in the presence of an internal standard (ISTD) d5-7-ethoxy coumarin. The column temperature was maintained at 40° C. for most of the samples otherwise noted. The detection was operated in the Agilent JetStream electrospray positive ionization using multiple reaction monitoring mode (MRM).
Other MS conditions were as follows: dwell time 100 ms; gas flow 10 L/min; nebulizer pressure 45 psi; delta EMV 200 V; fragmentor voltage and collision energy for individual compounds vary.
Test compounds were dissolved in 100% DMSO or 100% MeOH to make 10 mM stock solutions. Verapamil (Sigma Aldrich) aided as a positive control and was dissolved in 100% DMSO to make 10 mM stock solutions. The 10 mM stock solution of test and control compounds were further diluted in potassium phosphate buffer (100 mM, pH 7.4) to 500 μM to ensure the organic solvent content was <0.2%. Human liver microsomes (HLMs) were purchased from Xenotech at 20 mg/mL. NADPH (Sigma Aldrich) 10 mM stocks were prepared in deionized water.
The HLM assay was prepared in a 1.5 mL Eppendorf tube with a final volume of 1100 μL for duplicate runs. Each reaction contained phosphate buffer (928.4 μL), liver microsomes (55 μL), and test compound resulting in a final concentration of 3 μM (6.6 μL of 500 μM). The reaction was initiated with 110 μL of 10 mM NADPH. Aliquots (100 μL) were removed in duplicate at 0, 15, 30, 60, 120 min (for prodrug compounds) and 0, 5, 10, 15, 30 min (verapamil, positive control compound) time intervals and quenched in cold […] of 100% methanol which contained internal standard (ISTD: d5-7-ethoxy coumarin 4 μM). Before centrifugation each of the aliquoted tubes were vortexed to make sure compounds were in the solution. The aliquots were centrifuged at 12,000 g for 5 min and the supernatant removed and placed in an LC-MS vial. Each time point was assessed using LC-MS and the area, based on the extracted ion, was integrated with respect to the ISTD. Positive controls were conducted at a final volume of 550 μL to give each time point in a single run. A no-NADPH negative control with test or control compound was performed in a single run (150 μL) at the longest time point. Controls were processed and analyzed like the test compounds. Each time point was run in duplicates followed by in-between blank washes to avoid the carryover and to equilibrate the column.

CYP3A4 = CYP3A4 (Homo sapiens (Human), UniProt P08684); experiment: Fluorometric CYP450 enzyme inhibition assay, CYP3A4; type: biochemical
CYP3A4, sequence (P08684 whole entry, canonical isoform): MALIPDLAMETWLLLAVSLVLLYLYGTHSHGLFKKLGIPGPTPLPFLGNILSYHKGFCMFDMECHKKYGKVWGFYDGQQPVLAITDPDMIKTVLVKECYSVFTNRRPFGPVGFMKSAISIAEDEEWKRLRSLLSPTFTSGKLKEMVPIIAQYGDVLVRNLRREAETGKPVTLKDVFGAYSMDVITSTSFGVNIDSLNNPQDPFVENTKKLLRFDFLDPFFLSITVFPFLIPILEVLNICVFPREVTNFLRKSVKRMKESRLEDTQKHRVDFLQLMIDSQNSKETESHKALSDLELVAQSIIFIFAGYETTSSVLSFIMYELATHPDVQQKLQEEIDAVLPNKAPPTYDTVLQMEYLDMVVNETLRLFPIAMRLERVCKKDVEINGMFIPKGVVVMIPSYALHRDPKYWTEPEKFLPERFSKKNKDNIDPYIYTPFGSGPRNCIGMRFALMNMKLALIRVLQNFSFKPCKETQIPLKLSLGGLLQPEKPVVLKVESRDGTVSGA
Method: (§1) The CYP450 inhibition assays utilized microsomes from insect cells expressing human recombinant individual cDNA-expressed CYP isoforms 3A4 and 2D6, as well as the fluorogenic probe that produces fluorescent metabolite. Standard inhibitors were co-incubated with fluorogenic substrates and their inhibitory potential (IC50) was determined. Assay conditions in terms of CYP450 protein concentration and time of incubation were standardized, enzyme kinetics parameters of each fluorescent probe substrate were estimated and IC50 values of inhibitors were determined and validated on different days to check reproducibility.
(§2) A 100 mM sodium phosphate buffer was prepared and adjusted to pH 7.4. In a separate falcon tube, a 2× enzyme/substrate (E/S) solution was prepared in phosphate buffer. The final concentration of CYP2D6 (CORNING®) and […] (AMMC) was 10 nM and 4 μM, and CYP3A4 (CORNING®) and 7-benzyloxy-4-(trifluoromethyl) coumarin (BFC) was 20 nM and 40 μM, respectively. In a separate falcon tube, a 2×NADPH regenerating system (NRS) was prepared in phosphate buffer. The final concentration for each component in the assay was as follows: • CYP2D6 assay: 0.008 mM NADPH, 3.3 mM glucose 6-phosphate, 0.4 U of glucose-6-phosphate dehydrogenase per mL
Both enzymatic assays were conducted in a 96-well microtiter plate (Black, CORNING® COSTAR®) with a final volume of 100 μL. Preparation of the plate began with the addition of 74 μL of the E/S in the first well, and 50 μL to all subsequent wells (from 2-11). […] A 1:3 serial dilution of the test compound was conducted by removing 25 μL from the first well and diluting it with the second and so forth until the tenth row. Final concentrations yielded a range from 200 μM-0.01 μM. Well no. 11 contained no inhibitor, and well no. 12 contained no enzyme. Both were used as controls for background fluorescence. The plate was incubated for 30 min at 37° C. After incubation, the reaction was initiated by the addition of 50 μL of the 2×NRS to each well.
Immediately (within 1 min) the fluorescence was measured using a microplate reader (BIOTEK® Synergy Neo2). […] Data was exported and analyzed using Graph Pad Prism 7. […] The IC50 value was derived after the data was fitted on a 10-point curve using a four-parameter logistic regression model.

CYP2D6 = CYP2D6 (Homo sapiens (Human), UniProt P10635); experiment: biochemical; type: biochemical
CYP2D6, sequence (P10635 whole entry): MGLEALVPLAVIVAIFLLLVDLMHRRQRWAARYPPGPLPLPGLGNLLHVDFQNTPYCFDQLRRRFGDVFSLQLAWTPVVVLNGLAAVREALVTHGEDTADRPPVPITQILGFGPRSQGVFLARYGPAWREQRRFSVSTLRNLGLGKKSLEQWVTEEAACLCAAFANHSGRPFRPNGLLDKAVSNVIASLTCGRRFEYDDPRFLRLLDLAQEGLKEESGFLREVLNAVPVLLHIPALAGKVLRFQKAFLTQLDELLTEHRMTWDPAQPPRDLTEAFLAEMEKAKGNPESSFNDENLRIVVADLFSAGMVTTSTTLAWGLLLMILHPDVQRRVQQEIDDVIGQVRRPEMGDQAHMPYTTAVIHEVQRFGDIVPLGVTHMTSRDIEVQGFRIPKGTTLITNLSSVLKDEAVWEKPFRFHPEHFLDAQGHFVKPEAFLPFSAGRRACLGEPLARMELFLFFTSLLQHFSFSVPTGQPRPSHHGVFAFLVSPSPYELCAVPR
Method: as §1, §2
Both enzymatic assays were conducted in a 96-well microtiter plate (Black, CORNING® COSTAR®) with a final volume of 100 μL. Preparation of the plate began with the addition of 74 μL of the E/S in the first well, and 50 μL to all subsequent wells (from 2-11). The test compounds (1 μL) were dissolved in the first well to give the first row a final volume of 75 μL. A 1:3 serial dilution of the test compound was conducted by removing 25 μL from the first well and diluting it with the second and so forth until the tenth row. Final concentrations yielded a range from 200 μM-0.01 μM. Well no. 11 contained no inhibitor, and well no. 12 contained no enzyme. Both were used as controls for background fluorescence. The plate was incubated for 30 min at 37° C. After incubation, the reaction was initiated by the addition of 50 μL of the 2×NRS to each well.
Immediately (within 1 min) the fluorescence was measured using a microplate reader (BIOTEK® Synergy Neo2). CYP2D6 was monitored at Ex/Em=410/460 nm, and CYP3A4 monitored at Ex/Em=410/538 nm in kinetic mode that scanned every 5 min for 60 mins. Data was exported and analyzed using Graph Pad Prism 7. […] The IC50 value was derived after the data was fitted on a 10-point curve using a four-parameter logistic regression model.

HEK293 cells = conditions: 50% cytotoxic concentration; italicized results: absence of human serum albumin
[2] = human recombinant CYP3A4, BFC substrate, read-out: CYP450 IC50 3A4
[3] = human recombinant CYP2D6, AMMC substrate, read-out: CYP450 IC50 2D6

Molecule	half-life at 3 µM [1] [min]	pIC50 (CYP3A4; [2])	pIC50 (CYP2D6; [3])	HLM t1/2 [1] [min]	CC50 (HEK293 cells) [µM]	pIC50 (CYP3A4)	pIC50 (CYP2D6)
C#CCCCCCCCCCCCCCCCCSCCCOP(=O)(O)CO[C@H](C)Cn1cnc2c(N)ncnc21.N [BI-1-057, Ammonium 3-(octadec-17-yn-1-ylthio)propyl (R)-(((1-(6-amino-9H-purin-9-yl)propan-2-yl)oxy)methyl)phosphonate]	> 120	4.43	4.69				
C#CCCCCCCCCCCCCCCCCOP(=O)(O)CO[C@H](C)Cn1cnc2c(N)ncnc21.N [Compound B1-1-024, Ammonium octadec-17-yn-1-yl ((((R)-1-(6-amino-9H-purin-9-yl)propan-2-yl)oxy)methyl)phosphonate]		4.73	5.62	>120	> 100		
C#CCCCCCCCCCCCCCCCCCCOP(=O)(O)CO[C@H](C)Cn1cnc2c(N)ncnc21.N [Compound B1-1-065, Ammonium icos-19-yn-1-yl (R)-(((1-(6-amino-9H-purin-9-yl)propan-2-yl)oxy)methyl)phosphonate]		< 4.30	4.66	>120	99.5		
N.[2H]C([2H])([2H])C([2H])([2H])CCCCCCCCCCCCCOP(=O)(O)CO[C@H](C)Cn1cnc2c(N)ncnc21 [EJM-8-030, Ammonium pentadecyl-14,14,15,15,15-d5 (R)-(((1-(6-amino-9H-purin-9-yl)propan-2-yl)oxy)methyl)phosphonate]	20					4.28	4.42
N.[2H]C([2H])([2H])CCCCCCCCCCCCCCCOP(=O)(O)CO[C@H](C)Cn1cnc2c(N)ncnc21 [EJM-8-036, Ammonium hexadecyl-16,16,16-d3 (R)-(((1-(6-amino-9H-purin-9-yl)propan-2-yl)oxy)methyl)phosphonate]	21					4.06	4.69
C[C@H](Cn1cnc2c(N)ncnc21)OCP(=O)(O)OCCCSCCCCCCCCCCCSc1ccccc1.N [MD-1-119, Ammonium 3-((11-(phenylthio)undecyl)thio)propyl (R)-(((1-(6-amino-9H-purin-9-yl)propan-2-yl)oxy)methyl)phosphonate]	12	4.96	4.44				
CCCCCCCCCCCCCCCCSCCCOP(=O)(O)CO[C@H](C)Cn1cnc2c(N)ncnc21 [MD-1-123, Ammonium 3-(hexadecylthio)propyl (R)-(((1-(6-amino-9H-purin-9-yl)propan-2-yl)oxy)methyl) phosphonate]	42	4.24	3.96				
COC(=O)CCCCCCCCCCCCCCCSCCCOP(=O)(O)CO[C@H](C)Cn1cnc2c(N)ncnc21.N [MD-1-124, Ammonium 3-((16-methoxy-16-oxohexadecyl)thio)propyl (R)-(((1-(6-amino-9H-purin-9-yl)propan-2-yl)oxy)methyl)phosphonate]	36	4.39	4.72				
C[C@H](Cn1cnc2c(N)ncnc21)OCP(=O)(O)OCCCSCCCCCCCCCCC#Cc1ccccc1.N [MD-1-183, Ammonium 3-((12-phenyldodec-11-yn-1-yl)thio)propyl (R)-(((1-(6-amino-9H-purin-9-yl)propan-2-yl)oxy)methyl)phosphonate]	72		< 4.70				
C[C@H](Cn1cnc2c(N)ncnc21)OCP(=O)(O)OCCCSCCCCCCCCCCCCc1ccccc1.N [MD-1-184, Ammonium 3-((12-phenyldodecyl)thio)propyl (R)-(((1-(6-amino-9H-purin-9-yl)propan-2-yl)oxy)methyl)phosphonate]	69		< 4.70				
C[C@H](Cn1cnc2c(N)ncnc21)OCP(=O)(O)OCCCSCCCCCCCCCCCCC#C[Si](C)(C)C.N [MD-1-187, Ammonium 3-((14-(trimethylsilyl)tetradec-13-yn-1-yl)thio)propyl (R)-(((1-(6-amino-9H-purin-9-yl)propan-2-yl)oxy)methyl)phosphonate]	> 120	< 4.70	< 4.70				
CCCCSCCCCCCCCCCCCCCCOP(=O)(O)CO[C@H](C)Cn1cnc2c(N)ncnc21 [MD-1-221, Ammonium 15-(butylthio)pentadecyl (R)-(((1-(6-amino-9H-purin-9-yl)propan-2-yl)oxy)methyl) phosphonate]		< 4.70	< 4.70				
C[C@H](Cn1cnc2c(N)ncnc21)OCP(=O)(O)OCCCSCCCCCCCCCCCOc1ccccc1.N [MD-1-223, Ammonium 3-((11-phenoxyundecyl)thio)propyl (R)-(((1-(6-amino-9H-purin-9-yl)propan-2-yl)oxy)methyl)phosphonate]	15	< 4.70	< 4.70				
C[C@H](Cn1cnc2c(N)ncnc21)OCP(=O)(O)OCCCCCCCCCCCCCCCCCC[Si](C)(C)C.N [NP-PD-051, Ammonium [(1R)-2-(6-aminopurin-9-yl)-1-methyl-ethoxy]methyl-(18-trimethylsilyloctadecoxy)phosphinate]	> 120	4.29	4.79				
Ammonium 3-((14-trimethylsilyl)tetradec-13-yn-1-yl)propyl(R)-(((1-(6-amino-9H-purin-9-yl)propan-2-yl)oxy)methyl)phosphonate [NP-PD-130]		< 4.70	4.66	>120			
